From publication PMC11284790, “Targeting Myeloperoxidase Ameliorates Gouty Arthritis: A Virtual Screening Success Story” (Journal of Medicinal Chemistry, 2024)
Like-named read-outs stand apart in the source and are kept apart here.

What was measured:
IL-1β = experiment: Paw tissue IL-1β level after MSU (ELISA); format: in vivo, male C57BL/6 mice; conditions: intraperitoneal pretreatment (RL6 30 mg/kg), tissue collected at 6 h
Method: (§1) The remaining part of the homogenate was treated with a solution of protease/phosphatase inhibitors (1 mM phenylmethylsulfonyl fluoride, 10 μg/mL leupeptin, and 10 μg/mL trypsin inhibitor) and centrifuged at 10,000g (10 min at 4 °C). The obtained supernatants were subjected to 1:2 dilution in PBS and subsequently used for the assessment of IL-1β and IL-6 using murine enzyme-linked immunosorbent assay kits, specifically a sandwich ELISA technique, following manufacturer’s instructions (BioLegend, CA, USA). The protein content within the samples was determined by using the Bradford method (1976). The results were quantified and expressed in pg/mg of protein (Bio-Rad, Hercules, CA, USA).[76]

[1] = tested on: total peroxidase activity; experiment: Paw tissue total peroxidase activity after MSU; format: in vivo, male C57BL/6 mice; conditions: intraperitoneal pretreatment (RL6 30 mg/kg), tissue collected at 6 h
Method: After the assessment of paw edema was completed, the mice were immediately anesthetized by inhalation of 2% isoflurane mixture in oxygen (O2). Subsequently, the surface of the hind paws was collected for the measurement of total peroxidase activity, IL-6, and IL-1β. These tissue samples were then frozen using dry ice and stored at −80 °C until further analysis. The frozen tissues were later pulverized into a fine powder using liquid nitrogen and homogenized in a phosphate buffer (100 mM, pH 7.4). For the analysis of total peroxidase activity, a portion of this homogenate was mixed with hexadecyltrimethylammonium (1% HTAB, pH 6.0), vigorously vortexed, and sonicated. The resulting mixture was then centrifuged at 10,000g for 10 min, at 4 °C, and heated at 60 °C for 2 h. The sample of each supernatant was incubated with a solution containing 50 mM phosphate buffer, 0.164 mg/mL of o-dianisidine dihydrochloride, and H2O2 (0.0005%, pH 6.0). […] Each unit represents the capacity to degrade 1 μmol of H2O2 per minute.[81]

IL-6 = experiment: Paw tissue IL-6 level after MSU (ELISA); format: in vivo, male C57BL/6 mice; conditions: intraperitoneal pretreatment (RL6 30 mg/kg), tissue collected at 6 h
Method: as §1

Human leukocyte MPO = Human leukocyte MPO (Homo sapiens, UniProt P05164); experiment: MPO chlorinating activity assay (taurine chloramine/TMB); format: biochemical; parameters: Human leukocyte MPO (EC 1.7.1.11) was purchased from Planta Natural Products; purchased Planta Natural Products (Vienna, Austria); host or cells: human leukocytes; conditions: for IC50: pH 7.4
Method: Chlorinating activity was carried out in phosphate buffer (20 mM, pH 7.4). Compounds (20 μM) were dissolved in 0.03% DMSO, MPO (10 nM), diethylenetriaminepentaacetic acid (100 μM), cetyltrimethylammonium chloride (0.03%), NaCl (140 mM), and taurine (5 mM).[31] This mixture was incubated at 37 °C for 15 min before adding 40 μM hydrogen peroxide. The reaction ran for 8 min and was then stopped by catalase (20 μg/mL). Oxidation of TMB (2 mM) (3,3,5,5-tetramethylbenzidine) by taurine chloroamine catalyzed by iodide (100 μM) was quantified at 650 nm.[33] Results were expressed as a percentage of the control (vehicle). IC50 was calculated by nonlinear regression using the Hill equation present in GraphPad Prism 5 software.

MSU-induced paw edema = experiment: MSU-induced paw edema, oral treatment; format: in vivo, male C57BL/6 mice
Method: Paw volume (mL) was measured at various time points, including before injection (baseline, B), […] 1, 2, 3, 4, 5, and 6 h following MSU injection using a plethysmometer (Ugo Basile, Comerio, Italy) (Figure 7). For this, the injected hind paw was immersed into the dipping solution (6 mM NaCl diluted in distilled water and added with 2 mL/L of a wetting compound provided by the manufacturer) until the ankle. The extent of edema was quantified as a change in paw volume (Δ mL) by subtracting the basal paw volume from the volume of the paw measured at each time point. To evaluate the antiedematogenic effect of orally administered MPO inhibitors (p.o.), the animals were fasted for 1 h and then treated with equimolar doses of the following substances: vehicle (VEH: 5% DMSO; 0.5% tween 80 in PBS), mefenamic acid (30 mg/kg), RL 6 (33 mg/kg), RL 7 (54 mg/kg), RL 21 (30 mg/kg), or ZINC9089086 (34 mg/kg). After 1 h, the anesthetized mice (2% isoflurane, v/v in O2) received either the vehicle (PBS, 30 μL, i.pl.) or 1.5 mg/30 μL MSU (i.pl.). The paw volume was evaluated at the same time points as previously described. The percentage of edema inhibition by the compounds was calculated discounting the paw volume of mice that received oral or intraperitoneal vehicle and PBS intraplantar (VEH + VEH).

hTERT-RPE1 cells = experiment: Cell viability assay (XTT); format: cell-based; conditions: 2-50 μM, 72 h
Method: hTERT-RPE1 cells were seeded in 24-well plates at 2 × 10^4 cells per well. After 24 h, cells were treated with 2, 5, 10, 25, or 50 μM RL6, RL7, or PTU in a culture medium (DMEM/F-12 with HEPES and 10% FBS). DMSO was added to untreated cells at 0.42% concentration as a vehicle control. After 72 h of treatment, cells were washed with PBS and left in 200 μL of XTT working solution for 3 h. The working solution was prepared according to manufacturer’s instructions but diluted eightfold in PBS. The supernatant was transferred to a 96-well plate; absorbance was read at 450 and 750 nm in a Synergy (Biotek, Winooski, VE, USA) plate reader and presented as percentage of control.
Figure S5. Evaluation of cytotoxicity by XTT. hTERT-RPE1 cells were seeded in 24-
well plates at 2 × 10^4 cells per well. 24h later, cells were treated with RL6, RL7 or PTU
(2, 5, 10, 25, 50 µM) in culture medium (DMEM/F-12 with HEPES and 10% FBS).
Viable cells were assessed 72h after treatments by measuring absorbance of the
supernatant at 450 and 750 nm and are presented as percentage of control (0.42%
DMSO). Data are mean ± SEM of three independent experiments.

[2] = 20 μM compound, 10 nM MPO, 140 mM NaCl, 5 mM taurine, 40 μM H2O2, pH 7.4, read-out: % Inhibition (at 20 μM) Chlorinating
[3] = supplementary csv copy of Table 1, read-out: % Inhibition (Chlorinating)

Sequence of Human leukocyte MPO (P05164 279-745 limits assumed): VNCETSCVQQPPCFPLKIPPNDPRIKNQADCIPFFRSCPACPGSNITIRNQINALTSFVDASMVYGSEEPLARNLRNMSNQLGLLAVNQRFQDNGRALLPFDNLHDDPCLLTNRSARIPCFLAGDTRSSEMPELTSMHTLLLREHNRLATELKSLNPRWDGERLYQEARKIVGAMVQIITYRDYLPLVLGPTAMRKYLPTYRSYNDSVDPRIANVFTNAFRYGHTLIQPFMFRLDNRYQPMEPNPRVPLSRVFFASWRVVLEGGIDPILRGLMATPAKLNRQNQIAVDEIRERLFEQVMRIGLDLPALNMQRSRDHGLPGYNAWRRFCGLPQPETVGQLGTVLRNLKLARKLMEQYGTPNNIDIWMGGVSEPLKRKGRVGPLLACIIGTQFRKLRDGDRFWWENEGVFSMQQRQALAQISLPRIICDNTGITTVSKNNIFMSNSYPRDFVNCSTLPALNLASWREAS
Sequence of Human leukocyte MPO (P05164 165-278 limits assumed): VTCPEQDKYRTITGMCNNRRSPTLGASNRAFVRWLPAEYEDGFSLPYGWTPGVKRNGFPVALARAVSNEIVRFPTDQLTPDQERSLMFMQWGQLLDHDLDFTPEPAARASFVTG

SMILES | decrease in IL-1β levels in hind paw tissue (IL-1β) | reduction in total peroxidase activity in hind paw tissue [1] | effect on IL-6 levels in hind paw tissue (IL-6) | IC50 (Human leukocyte MPO; 10 nM MPO, 140 mM NaCl) | % Inhibition (at 20 μM) Chlorinating (Human leukocyte MPO; 20 μM compound, 10 nM MPO, 140 mM NaCl, 5 mM taurine, 40 μM H2O2, pH 7.4) | inhibition at 20 µM (Human leukocyte MPO; [2]) | inhibition at 20 µM (Human leukocyte MPO; [3]) | inhibition of edema vs VEH + MSU (MSU-induced paw edema; 54 mg/kg po) | cytotoxicity to hTERT-RPE1 cells (hTERT-RPE1 cells) | chlorinating/peroxidatic activity inhibition ratio (Human leukocyte MPO; ratio of % inhibition at 20 μM, ~1 indicates true enzyme inhibitor) | inhibition of edema vs VEH + MSU (MSU-induced paw edema; 33 mg/kg po)
CN1CCc2nc3sc(C(=O)Nc4cccc(C#N)c4)c(N)c3cc2C1 [RL7] | unable to decrease | unable to decrease | unable to decrease | 560 nM | active against chlorinating activity only | 84.9 ± 17% | 84.9 ± 17% | 74.3% | highly cytotoxic at 50 μM | – | –
Nc1cc2c3c(cccc3c1)C(=O)N(N)C2=O [RL6] | 48.3% | 61.5% | no significant impact | 270 nM | – | 86.5 ± 15.3% | 86.5 ± 15.3% | – | no cytotoxicity | ~1 | 57.0%
